US20250163038A1, “CBL-B MODULATORS AND USES THEREOF” (Nimbus Clio, Inc., priority 2021, published 2025)
Like-named read-outs stand apart in the source and are kept apart here.

Tests used:
[1] = biological target: Recombinant human Cbl-b (aa 36-427) (Homo sapiens, UniProt Q13191); test: Cbl-b Biochemical Assay (TR-FRET)
[2] = tested on: Jurkat (clone E6-1) cells with NFAT luciferase reporter; test: Jurkat reporter assay (NFAT Luciferase); type: cell-based; settings: Homo sapiens
[3] = biological target: T1, Recombinant human c-Cbl (aa 47-435) (Homo sapiens, UniProt P22681); test: c-Cbl Biochemical Assay (TR-FRET)
T1 sequence (P22681 47-435): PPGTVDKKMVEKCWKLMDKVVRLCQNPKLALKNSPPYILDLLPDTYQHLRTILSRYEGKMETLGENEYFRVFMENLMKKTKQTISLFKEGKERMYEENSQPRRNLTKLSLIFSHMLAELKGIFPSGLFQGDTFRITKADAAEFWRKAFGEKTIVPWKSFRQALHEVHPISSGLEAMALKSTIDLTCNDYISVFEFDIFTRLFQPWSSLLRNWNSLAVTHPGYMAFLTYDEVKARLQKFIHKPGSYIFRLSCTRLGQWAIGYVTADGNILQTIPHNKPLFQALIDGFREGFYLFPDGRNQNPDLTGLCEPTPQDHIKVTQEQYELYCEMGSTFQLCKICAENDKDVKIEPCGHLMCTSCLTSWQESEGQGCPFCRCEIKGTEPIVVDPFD

[4] = Jurkat NFAT luciferase reporter cells, anti-CD3 stimulation, 6 hr, read-out: Jurkat NFAT EC50
[5] = hc-Cbl Biochemical Assay (TR-FRET), read-out: TR-FRET hcCbl IC50

Sequence of Recombinant human Cbl-b (aa 36-427) (Q13191 36-427): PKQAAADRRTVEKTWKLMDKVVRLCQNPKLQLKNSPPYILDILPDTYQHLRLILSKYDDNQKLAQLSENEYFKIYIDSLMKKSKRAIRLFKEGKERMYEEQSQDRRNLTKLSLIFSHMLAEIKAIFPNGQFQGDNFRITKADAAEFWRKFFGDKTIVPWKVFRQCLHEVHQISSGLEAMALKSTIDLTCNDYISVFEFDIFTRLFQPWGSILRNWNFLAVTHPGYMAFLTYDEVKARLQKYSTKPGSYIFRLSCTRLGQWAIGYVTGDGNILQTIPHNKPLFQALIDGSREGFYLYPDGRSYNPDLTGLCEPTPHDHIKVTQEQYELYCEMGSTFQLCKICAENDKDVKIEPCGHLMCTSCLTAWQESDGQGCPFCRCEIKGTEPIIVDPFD

Structure (SMILES) | IC50 ([1]; read-out: TR-FRET hCbl-b IC50) [nM] | EC50 [2, 4] [µM] | IC50 [3, 5] [nM] | EC50 ([2]; Jurkat, 6 h, read-out: Jurkat NFAT EC50 (μM)) [µM] | IC50 [1] [nM] | IC50 [3] [nM]
Cn1cnnc1-c1cc(F)ccc1-c1cccc(-c2nc3cc(CN[C@@H]4CCC[C@@H]4O)cc(C#N)c3o2)c1 [HH-3, 2-(4′-Fluoro-2′-(4-methyl-4H-1,2,4-triazol-3-yl)-[1,1′-biphenyl]-3-yl)-5-((((1R,2S)-2-hydroxycyclopentyl)amino)methyl)benzo[d]oxazole-7-carbonitrile] | < 200 | – | < 200 | < 0.2 | – | –
C[C@H]1CCCN(Cc2cc(C(F)(F)F)c3oc(-c4cc(-c5ccc(F)cc5-c5nncn5C)cc(C5CC5)n4)nc3c2)C1 [ADO-1, 2-{6-Cyclopropyl-4-[4-fluoro-2-(4-methyl-1,2,4-triazol-3-yl)phenyl]pyridin-2-yl}-5-{[(3S)-3-methylpiperidin-1-yl]methyl}-7-(trifluoromethyl)-1,3-benzoxazole] | < 200 | < 0.2 | < 200 | – | – | –
C[C@H]1CCCN(Cc2ccc3oc(-c4cc(-c5ccc(C#N)cc5-c5nncn5C)cc(C5CC5)n4)nc3c2)C1 [AGG-2, 4-[2-Cyclopropyl-6-(5-{[(3S)-3-methylpiperidin-1-yl]methyl}-1,3-benzoxazol-2-yl)pyridin-4-yl]-3-(4-methyl-1,2,4-triazol-3-yl)benzonitrile] | < 200 | 0.2 to 1 | 200 to 1000 | – | – | –
Cn1cnnc1-c1cc(F)ccc1-c1cccc(-c2nc3cc(CNCC(C)(C)O)cc(C(F)(F)F)c3o2)c1 [AE-2, 1-(((2-(4′-Fluoro-2′-(4-methyl-4H-1,2,4-triazol-3-yl)-[1,1′-biphenyl]-3-yl)-7-(trifluoromethyl)benzo[d]oxazol-5-yl)methyl)amino)-2-methylpropan-2-ol] | < 200 | 0.2 to 1 | 1000 to 10000 | – | – | –
Cn1cnnc1-c1cc(F)ccc1-c1cccc(-c2nc3cc(CN4CC[C@@H](C#N)C4)cc(C(F)(F)F)c3o2)c1 [DR-2, (R)-1-((2-(4′-Fluoro-2′-(4-methyl-4H-1,2,4-triazol-3-yl)-[1,1′-biphenyl]-3-yl)-7-(trifluoromethyl)benzo[d]oxazol-5-yl)methyl)pyrrolidine-3-carbonitrile] | < 200 | 0.2 to 1 | < 200 | – | – | –
CCNc1cc(-c2ccc(F)cc2-c2nncn2C)cc(-c2nc3cc(CO)cc(C(F)(F)F)c3o2)n1 [AEL-1, {2-[6-(Ethylamino)-4-[4-fluoro-2-(4-methyl-1,2,4-triazol-3-yl)-phenyl]-pyridin-2-yl]-7-(trifluoromethyl)-1,3-benzoxazol-5-yl}-methanol] | 200 to 1000 | 10 to 50 | 200 to 1000 | – | – | –
Cn1cnnc1-c1cc(F)ccc1-c1cccc(-c2nc3cc(CNC[C@@H](O)C4CC4)cc(C(F)(F)F)c3o2)c1 (single isomer, unassigned) [DT-3] | < 200 | < 0.2 | < 200 | – | – | –
Cn1cnnc1-c1cc(F)ccc1-c1cccc(-c2nc3cc(CN[C@@H]4CCCC[C@@H]4O)cc(C(F)(F)F)c3o2)c1 [DF-2, (1S,2R)-2-(((2-(4′-Fluoro-2′-(4-methyl-4H-1,2,4-triazol-3-yl)-[1,1′-biphenyl]-3-yl)-7-(trifluoromethyl)benzo[d]oxazol-5-yl)methyl)amino)cyclohexan-1-ol] | < 200 | < 0.2 | < 200 | – | – | –
Cn1cnnc1-c1cc(C#N)ccc1-c1cccc(-c2nc3cc(CN[C@@H]4CCC[C@@H]4O)cc(C(F)(F)F)c3[nH]2)c1 [AAW-5, 3′-(5-((((1R,2S)-2-Hydroxycyclopentyl)amino)methyl)-7-(trifluoromethyl)-1H-benzo[d]imidazol-2-yl)-2-(4-methyl-4H-1,2,4-triazol-3-yl)-[1,1′-biphenyl]-4-carbonitrile] | < 200 | 0.2 to 1 | 1000 to 10000 | – | – | –
Cn1cnnc1-c1cc(F)ccc1-c1cccc(-c2nc3cc(CNCC4(O)CCC4)ccc3o2)c1 [DQ-1, 1-((((2-(4′-Fluoro-2′-(4-methyl-4H-1,2,4-triazol-3-yl)-[1,1′-biphenyl]-3-yl)benzo[d]oxazol-5-yl)methyl)amino)methyl)cyclobutan-1-ol] | < 200 | < 0.2 | < 200 | – | – | –
Cn1cnnc1-c1cc(F)ccc1-c1cccc(-c2nc3cc(CNCC4(F)CCC4)cc(C(F)(F)F)c3o2)c1 [HW-2, 1-(2-(4′-Fluoro-2′-(4-methyl-4H-1,2,4-triazol-3-yl)-[1,1′-biphenyl]-3-yl)-7-(trifluoromethyl)benzo[d]oxazol-5-yl)-N-((1-fluorocyclobutyl)methyl)methanamine] | < 200 | 0.2 to 1 | < 200 | – | – | –
Cn1cnnc1-c1cc(F)ccc1-c1cc(-c2nc3cc(CN[C@@H]4CCC[C@@]4(C)O)cc(F)c3o2)nc(C2CC2)c1 [AFM-1, (1R,2R)-2-(((2-(6-Cyclopropyl-4-(4-fluoro-2-(4-methyl-4H-1,2,4-triazol-3-yl)phenyl)pyridin-2-yl)-7-fluorobenzo[d]oxazol-5-yl)methyl)amino)-1-methylcyclopentan-1-ol] | – | 1 to 10 | – | – | < 200 | 200 to 1000
Cn1cnnc1-c1cc(F)ccc1-c1cc(-c2nc3cc(CO)ccc3o2)cc(C2CC2)c1 [AEP-2, {2-[5-cyclopropyl-4′-fluoro-2′-(4-methyl-1,2,4-triazol-3-yl)-[1,1′-biphenyl]-3-yl]-1,3-benzoxazol-5-yl}methanol] | 200 to 1000 | 1 to 10 | 200 to 1000 | – | – | –

Further lines, with some results ahead:

IC50 ([1]; read-out: TR-FRET hCbl-b IC50) [nM] | EC50 [2, 4] [µM] | IC50 [3, 5] [nM] | Structure (SMILES) | EC50 ([2]; Jurkat, 6 h, read-out: Jurkat NFAT EC50 (μM)) [µM] | IC50 [1] [nM] | IC50 [3] [nM]
< 200 | 10 to 50 | 1000 to 10000 | Cn1cnnc1-c1cc(F)ccc1-c1cccc(-c2nc3cc(C(=O)NO)cc(C(F)(F)F)c3o2)c1 [DI-1, 2-(4′-Fluoro-2′-(4-methyl-4H-1,2,4-triazol-3-yl)-[1,1′-biphenyl]-3-yl)-N-hydroxy-7-(trifluoromethyl)benzo[d]oxazole-5-carboxamide] | – | – | –
< 200 | 0.2 to 1 | 1000 to 10000 | C[C@H](O)CNCc1cc(C(F)(F)F)c2oc(-c3cccc(-c4ccc(F)cc4-c4nncn4C)c3)nc2c1 [AM-2, (S)-1-(((2-(4′-Fluoro-2′-(4-methyl-4H-1,2,4-triazol-3-yl)-[1,1′-biphenyl]-3-yl)-7-(trifluoromethyl)benzo[d]oxazol-5-yl)methyl)amino)propan-2-ol] | – | – | –
< 200 | 0.2 to 1 | 1000 to 10000 | Cn1cnnc1-c1cc(F)ccc1-c1cccc(-c2nc3cc(CN[C@H]4CCC[C@@H]4O)cc(C(F)(F)F)c3[nH]2)c1 [BN-2, (1S,2S)-2-(((2-(4′-Fluoro-2′-(4-methyl-4H-1,2,4-triazol-3-yl)-[1,1′-biphenyl]-3-yl)-7-(trifluoromethyl)-1H-benzo[d]imidazol-5-yl)methyl)amino)cyclopentan-1-ol] | – | – | –
< 200 | < 0.2 | < 200 | COCCNCc1ccc2oc(-c3cc(-c4ccc(Cl)cc4-c4nncn4C)cc(C4CC4)n3)nc2c1 [AEM-1] | – | – | –
< 200 | < 0.2 | < 200 | Cn1cnnc1-c1cc(F)ccc1-c1cccc(-c2nc3cc(CN[C@@H]4CCC[C@@H]4O)cc(F)c3o2)c1 [ED-7, (1S,2R)-2-(((7-Fluoro-2-(4′-fluoro-2′-(4-methyl-4H-1,2,4-triazol-3-yl)-[1,1′-biphenyl]-3-yl)benzo[d]oxazol-5-yl)methyl)amino)cyclopentan-1-ol] | – | – | –
< 200 | < 0.2 | < 200 | CO[C@@H](C)CNCc1cc(C)c2oc(-c3cc(-c4ccc(F)cc4-c4nncn4C)cc(C4CC4)n3)nc2c1 [AHF-1, [(2-{6-cyclopropyl-4-[4-fluoro-2-(4-methyl-1,2,4-triazol-3-yl)phenyl]pyridin-2-yl}-7-methyl-1,3-benzoxazol-5-yl)methyl][(2S)-2-methoxypropyl]amine] | – | – | –
< 200 | < 0.2 | < 200 | Cn1cnnc1-c1cc(F)ccc1-c1cc(-c2nc3cc(CNCC4(O)CCC4)c(F)c(F)c3o2)nc(C2CC2)c1 [AGA-1, 1-({[(2-{6-Cyclopropyl-4-[4-fluoro-2-(4-methyl-1,2,4-triazol-3-yl)phenyl]pyridin-2-yl}-6,7-difluoro-1,3-benzoxazol-5-yl)methyl]amino}methyl)cyclobutan-1-ol] | – | – | –
< 200 | < 0.2 | < 200 | C[C@@H](N[C@@H]1CCC[C@@H]1O)c1cc(C(F)(F)F)c2oc(-c3cccc(-c4ccc(F)cc4-c4nncn4C)c3)nc2c1 [EA-2, (1S,2R)-2-(((R)-1-(2-(4′-Fluoro-2′-(4-methyl-4H-1,2,4-triazol-3-yl)-[1,1′-biphenyl]-3-yl)-7-(trifluoromethyl)benzo[d]oxazol-5-yl)ethyl)amino)cyclopentan-1-ol] | – | – | –
< 200 | < 0.2 | < 200 | COCCNCc1cc(F)c2oc(-c3cc(-c4ccc(F)cc4-c4nncn4C)cc(C4CC4)n3)nc2c1 [AHB-1, [(2-{6-cyclopropyl-4-[4-fluoro-2-(4-methyl-1,2,4-triazol-3-yl)phenyl]pyridin-2-yl}-7-fluoro-1,3-benzoxazol-5-yl)methyl](2-methoxyethyl)amine] | – | – | –
< 200 | 1 to 10 | 200 to 1000 | COc1cc(CN[C@@H]2C[C@H](O)C2(C)C)cc2nc(-c3cccc(-c4ccc(F)cc4-c4nncn4C)c3)oc12 [HF-1, (1S,3R)-3-(((2-(4′-Fluoro-2′-(4-methyl-4H-1,2,4-triazol-3-yl)-[1,1′-biphenyl]-3-yl)-7-methoxybenzo[d]oxazol-5-yl)methyl)amino)-2,2-dimethylcyclobutan-1-ol] | – | – | –
